{"source": "patent US20040171045A1", "about": "“Assay for predicting cell activity” (IsoTis N.V., priority 2001, published 2004)", "test_system": "human bone marrow stromal cells (HBMSC)", "assay": "Temporal expression of ALP in HBMSC cultures by flow cytometry, (+) dex versus control medium", "format": "cell-based", "conditions": "10^−8 M dex, average of day 3 to day 9", "procedure": "The expression of ALP was evaluated by flow cytometry at several culture periods (from day 1 to day 9, three to four measurements were performed for each culture). Briefly, after trypsinisation, cells were washed twice in wash buffer and blocked against non-specific binding (see above). Cells (approx. 0.1-0.3E6/staining) were then resuspended in blocking buffer containing: (a) control mouse anti-human IgG2a (1:5 dilution) and (b) ALP monoclonal antibody (1:10 dilution). After incubation on ice for 45 minutes and washing, antibody reactivity was detected by suspending the cells with blocking buffer containing goat anti-mouse IgGγ-chain-specific-FITC (1:5 dilution). Cells were incubated on ice and in the dark for 30 minutes. After washing, the cells were resuspended in 200 μl of FACS-flow/staining and analyzed using a FACS Calibur apparatus (Becton Dickinson Immunocytometry systems). For each measurement 10,000 events were collected."}
{"smiles": "C[C@@H]1C[C@H]2[C@@H]3CCC4=CC(=O)C=C[C@]4(C)[C@@]3(F)[C@@H](O)C[C@]2(C)[C@@]1(O)C(=O)CO", "note": "[dex, dexamethasone]", "values": [{"measurement": "Ratio between the fraction of ALP+ cells in the (+) dex and control conditions", "setting": "Donor 1 (U00079)", "result": 1.53}, {"measurement": "Ratio between the fraction of ALP+ cells in the (+) dex and control conditions", "setting": "Donor 2 (U00084)", "result": 1.53}, {"measurement": "Ratio between the fraction of ALP+ cells in the (+) dex and control conditions", "setting": "Donor 3 (U00169)", "result": 1.40}, {"measurement": "Ratio between the fraction of ALP+ cells in the (+) dex and control conditions", "setting": "Donor 4 (U00182-2)", "result": 2.71}, {"measurement": "Ratio between the fraction of ALP+ cells in the (+) dex and control conditions", "setting": "Donor 5 (U00212)", "result": 2.53}, {"measurement": "Ratio between the fraction of ALP+ cells in the (+) dex and control conditions", "setting": "Donor 6 (U00230)", "result": 1.52}, {"measurement": "Ratio between the fraction of ALP+ cells in the (+) dex and control conditions", "setting": "Donor 7 (U00106)", "result": 1.25}, {"measurement": "Ratio between the fraction of ALP+ cells in the (+) dex and control conditions", "setting": "Donor 8 (U00173)", "result": 3.72}, {"measurement": "Ratio between the fraction of ALP+ cells in the (+) dex and control conditions", "setting": "Donor 9 (U00174)", "result": 1.56}, {"measurement": "Ratio between the fraction of ALP+ cells in the (+) dex and control conditions", "setting": "Donor 11 (U00179)", "result": 2.40}, {"measurement": "Ratio between the fraction of ALP+ cells in the (+) dex and control conditions", "setting": "Donor 12 (U00090)", "result": 2.56}, {"measurement": "Ratio between the fraction of ALP+ cells in the (+) dex and control conditions", "setting": "Donor 13 (U00180)", "result": 1.55}, {"measurement": "Ratio between the fraction of ALP+ cells in the (+) dex and control conditions", "setting": "Donor 14 (U00091)", "result": 1.80}]}
